The target of test [1] is T1, A53T mutant of α-synuclein (Homo sapiens, UniProt P37840, A53T).
T1 construct: made in house; host or cells: E. coli
Nature of the test: Negative stain electron microscopy of α-synuclein fibre formation. It counts as biochemical. The procedure: α-Synuclein will be purified from E. coli expressing the native and the aggregation prone A53T mutant proteins via chromatography on a Q-sepharose column.[10, 12] Recombinant α-synuclein spontaneously aggregates into fibers upon incubation at high concentrations 2 mg/ml. To assay the α-synuclein aggregation the proteins will then be incubated at 37° C. (50 mM Tris, pH 7.5) with shaking in the presence and absence of the inositols in varying ratios from 1:1 to 1:100 protein:inositol. The products of these incubations will be evaluated with the biophysical techniques discussed below. Negative stain electron microscopy is an excellent tool to examine the gross morphology of the protein aggregates formed. Samples will be examined as a function of time and scyllo-inositol concentrations.

Another test has as its target T2, α-synuclein (Homo sapiens, UniProt P37840, A53T).
T2 construct: made in house; host or cells: E. coli
Nature of the test: Thioflavin T binding assay of α-synuclein aggregation. The format is biochemical. As to conditions: α-synuclein 2 mg/ml, 24 hrs at 37° C., scyllo-inositol 1:20 ratio by weight. The procedure: α-Synuclein will be purified from E. coli expressing the native and the aggregation prone A53T mutant proteins via chromatography on a Q-sepharose column.[10, 12] Recombinant α-synuclein spontaneously aggregates into fibers upon incubation at high concentrations 2 mg/ml. To assay the α-synuclein aggregation the proteins will then be incubated at 37° C. (50 mM Tris, pH 7.5) with shaking in the presence and absence of the inositols in varying ratios from 1:1 to 1:100 protein:inositol. The products of these incubations will be evaluated with the biophysical techniques discussed below.
Fluorimetry. Fluorescent probes are exceptionally useful to follow the aggregation kinetics of proteins. Two fluorescent probes, Thioflavin T (ThT) and 1-Anilinonaphthalene-8-sulfonic acid (ANS) are the most commonly used probes for α-synuclein. […] Thus, the amyloid fibrils formed from the proteins used in these studies bind ThT and binding is monitored by an increase in fluorescence intensity. Oligomers other than the amyloid fibrils can also have significant β-sheet character and bind ThT. ANS binds to hydrophobic unstructured proteins and is complementary to ThT fluorescence assays. Upon binding in a hydrophobic environment ANS undergoes an increase in quantum yield and a blue shift in its fluorescence emission maximum.

In a further test the test system is Aβ peptide fibrils. Particulars: stated as previously shown; cited from earlier work.

The source of these data is US20100331267A1, “USE OF CYCLOHEXANEHEXOL DERIVATIVES IN THE TREATMENT OF ALPHA-SYNUCLEINOPATHIES” (priority 2007, published 2010).

As for `O[C@H]1[C@H](O)[C@@H](O)[C@H](O)[C@@H](O)[C@@H]1O` [scyllo-inositol], in test [1] (A53T mutant, after 24 hours of incubation at 37° C., without compound: characteristic α-synuclein fibrils), the “aggregates produced (negative stain EM, FIG. 1)” value is listed as “a few thin fibrils with the majority of the visible protein being present as amorphous aggregates”. Besides, the “α-synuclein fibres formed (negative stain electron microscopy, FIG. 1 legend)” value in test [1] (α-synuclein 2 mg/ml, scyllo-inositol 1:20 ratio by weight, 2 days at 37° C., alone: long mature fibres) is listed as “only small aggregates could be detected”. Moreover, at α-synuclein, the “Thioflavin T fluorescence (FIG. 2)” value was “fluorescence increases upon short incubations with scyllo-inositol and the fluorescence decreases with time”. The “disaggregation of preformed Aβ peptide fibrils” value in the test on Aβ peptide fibrils is reported as “able to disaggregate preformed Aβ peptide fibrils”.
